# Legend:
# rats = settings: orally or subcutaneously; cited from earlier work
# mice = settings: orally or subcutaneously; cited from earlier work
# [1] = tested on: 3T3 Swiss fibroblast monolayers; assay: Scratch wound closure in vitro; format: cell-based, mouse; settings: for Scratch wound closure at 5 μM, % of control: 12 h (Table 6)
# Method: 3T3 fibroblasts were seeded into 24-well dishes at a concentration of 3×10^5 cells/ml and cultured to nearly confluent cell monolayers. On the day of the experiment, a linear wound was generated in the monolayer with a sterile 100 μl plastic pipette tip and any cellular debris was removed by washing cells once with sterile PBS. Fresh DMEM medium containing vehicle (0.1% ethanol), positive control (0.5% FBS), or various concentrations of the fractions, sub-fractions or pure compounds was added to a set of 3 wells per dose and incubated for 12 h at 37° C. with 5% CO2. Cells were then visualized with 20 μl of 10% methylene blue in PBS for 5 min. Three representative images of the scratched areas from each well were photographed at 0 and 12 h to estimate the scratch wound closure. Images were analyzed using ImageJ program (NIH, Bethesda, Md.) and % wound closure was calculated relative to vehicle control and was reported as wound closure % over control (Table 4). 3T3 Swiss fibroblast were seeded into 24-well tissue culture at a concentration of 3×10^5 cells/ml and cultured to nearly confluent cell monolayers. Then, a linear wound was generated in the monolayer with a sterile 100 μl plastic pipette tip. Any cellular debris was removed by washing with PBS. DMEM medium with vehicle (0.1% ethanol), FBS (1%, positive control), or various concentrations of brassinosteroids were added to a set of 3 wells per dose and incubated for 12 h at 37° C. with 5% CO2. Cells were visualized in 10% methylene blue for 5 minutes. Three representative images from each well of the scratched areas under each condition were photographed to estimate the relative migration of cells at 0 and 12 h post-treatment. Data were analyzed using ImageJ software available online from the National Institutes of Health (rsbweb.nih.gov/ij/) by calculating the percentage of scratch closure at each dose point relative to control.
# L6 rat myotubes [2] = assay: Protein synthesis, [3H]-phenylalanine incorporation in myotubes; format: cell-based; settings: 10 μM, 4 h
# Method: (§1) In some aspects, cell culture experiments were carried out. Rat L6 skeletal muscle cell line CRL-1458 was obtained from ATCC (Manassas, Va.). Myoblasts were routinely maintained in Dulbecco's modified Eagle's medium (DMEM) containing 10% FBS and 0.1% penicillin-streptomycin at 37° C. and 5% CO2. Cells were subcultured into 24-well plates for protein synthesis, degradation, and cell viability studies and into 6-well plates for Western blot analyses (Greiner Bio One, Monroe, N.C.). Once cells reached 90% confluence, differentiation was induced by lowering the serum concentration to 2%, and medium was changed every 2 days. After 7-9 days of culture the myoblasts had fused into multinucleated myotubes (Mandel et al., Nature 251:618-620, 1974). NIH 3T3 murine embryonic fibroblast cell line (ATCC #CCL-92) was maintained in DMEM and 10% FBS at 37° C. in 5% CO2, and passaged every 3-4 days.
# In various aspects, protein synthesis is measured to determine the effect of brassinosteroid on a particular protein. All known methods for measuring protein synthesis are included in the methods of the disclosure. In brassinosteroid dose response studies, fully differentiated myotubes were washed with serum-free DMEM and treated in triplicate with vehicle (0.1% ethanol), increasing concentrations of HB, or 6.5 nM of insulin-like growth factor-1 (IGF-1) as a positive control. Compounds were added to serum-free medium containing 0.5 μCi/mL [^3H]-phenylalanine and incubated for 4 h. For the HB time course study, fully differentiated myotubes were treated with 3 μM HB for 1-24 h using the same culture conditions. The incubation was stopped by placing cells on ice, discarding the medium, and washing the cells extensively with ice-cold PBS to remove the non-incorporated radiolabel. Proteins were precipitated with 5% trichloroacetic acid and dissolved in 0.5N NaOH (Montgomery et al., Methods Cell. Sci. 24:123-129, 2002). Specific radioactivity of protein-bound phenylalanine was quantified using liquid scintillation counter LS 6500 (Beckman Coulter, Fullerton, Calif.) and normalized to mg of total protein determined by BCA protein assay (Pierce Biotechnology, Rockford, Ill.).
# The bioactivity of HB and its analogs was evaluated by measuring increases in protein synthesis in the L6 rat skeletal muscle cells in vitro. Cells were incubated for 4 h with [^3H]-phenylalanine and treated in triplicate with vehicle (0.1% ethanol) or test compound (10 μM), and protein synthesis was measured as incorporation of [^3H]-phenylalanine into protein normalized by total protein (Table 3). Under these conditions, both HB and (22S,23S)-homocastasterone increased protein synthesis by 37.2±5.9% (p<0.001) and 41.0±2.7% (p<0.001), respectively. This protein synthesis increase compared favorably to the biological activity of IGF-1 at 6.5 nM (42.5±4.5%, p<0.001) that served as a positive control in this assay. Removal of the 2α-hydroxyl group and fluorination at C-3 in the A ring (compound IDs 3-4 in Table 3) led to about a 50% decrease in bioactivity (24.6±5.3%, p<0.01 and 22.5±2.7%, p<0.01, respectively) compared to the positive control. However, there was still an increase in protein synthesis. […] Modifications in the side chain (compound IDs 7-9 in Table 3) abolished the activity.
# [3] = Cytotoxicity, MTT assay in 3T3 fibroblasts; format: cell-based, mouse; settings: mouse
# Method: (§2) FIG. 9. Cell survival curves as measured by MTT assay for brassinosteroids 1-9 against the murine fibroblast cell line NIH-3T3. Cells were incubated with various concentrations of brassinosteroids (0.3-30 μM) for 24 h at 37° C. The mean absorbance of the control cells represented 100% cell proliferation, and the mean absorbance of treated cells was related to control values to determine sensitivity. Error bars represent standard error (n=6) from mean cell proliferation as determined by repeated experiments.
# (§3) In various aspects, cell viability is measured and the effects of doses of compound and test reagents are tested in cell lines. In some aspects, cell viability was measured by the MTT (3-(4,5-Dimethylthiazol-2-yl)-2,5-diphenyltetrazolium bromide) assay in triplicate (Mosmann et al., J. Immunol. Methods 65:55-63, 1983) and quantified spectrophotometrically at 550 nm using a microplate reader (Molecular Devices, Sunnyvale, Calif.).
# (§4) 3T3 fibroblasts were seeded in a 96-well flat bottom plate at a density of 1×10^4 cells/well. Cell viability was measured by an MTT (3-(4,5-Dimethylthiazol-2-yl)-2,5-diphenyltetrazolium bromide) assay in triplicate (0.3-30 μM of test substance for […]) essentially as described by Mosmann (J. Immunol. Methods 65, 55-63, 1983) and quantified spectrophotometrically at 550 nm using a microplate reader (Molecular Devices, Sunnyvale, Calif.). […] For cell proliferation studies, cells were treated in triplicate with 0.1-10 μM of test substance for 24 h and assayed using a BrdU (5-bromo-2′-deoxyuridine) kit from Amersham (Uppsala, Sweden).
# [4] = tested on: NIH 3T3 murine fibroblast cell line; assay: Cytotoxicity, MTT assay in 3T3 fibroblasts; format: cell-based, mouse
# Method: as §2, §3, §4
# L6 rat myotubes [5] = assay: Protein degradation, release of acid-soluble [3H]-phenylalanine; format: cell-based; settings: 10 μM, 4 h
# Method: as §1, with “After 7-9 days of culture the myoblasts had fused into multinucleated myotubes (Mandel et al., Nature 251:618-620, 1974).” left out
# In various aspects, protein degradation is measured to determine the effect of brassinosteroid on a particular protein. All known methods for measuring protein degradation are included in the methods of the disclosure. The effect of brassinosteroids on protein degradation was investigated in fully differentiated myotubes as described by Fawcett et al. (Arch. Biochem. Biophys. 385:357-363, 2001) with slight modifications. Fully differentiated myotubes were incubated for 16 h to allow labeling of cellular proteins with 1.5 μCi/mL [^3H]-phenylalanine. […] The incubation was stopped by placing the cells on ice, and protein in the medium was precipitated with 5% trichloroacetic acid. Specific radioactivity of protein-free phenylalanine was quantified using liquid scintillation counter LS 6500 (Beckman Coulter, Fullerton, Calif.) and normalized to mg of total cell protein determined by BCA protein assay (Pierce Biotechnology, Rockford, Ill.).
# The bioactivity of HB and its analogs (as shown in Table 3) were also evaluated by measuring decreases in protein degradation in the L6 rat skeletal muscle cells in vitro. Cells were labeled overnight with [^3H]-phenylalanine and subsequently treated for 4 h in triplicate with vehicle (0.1% ethanol) or test compound (10 μM), and protein degradation was assessed as release of acid-soluble [^3H]-phenylalanine into the media normalized by total protein (Table 3).
# 3T3 mouse fibroblasts = assay: Cell proliferation, BrdU assay; format: cell-based; settings: 24 h
# Method: as §4
# [6] = tested on: 3T3 Swiss fibroblast monolayers; settings: PDGF 2 nM reference treatment, reported previously (Schmidt et al.); cited from earlier work
Compound,"Scratch wound closure at 5 μM, % of control [1] [%]",Protein synthesis (% increase over control) (L6 rat myotubes [2]) [%],Protein degradation (% decrease over control) (L6 rat myotubes [5]) [%],IC50 [4] [µM],"Cell proliferation at 5 μM, % of control (3T3 mouse fibroblasts) [%]",other results
CC(C)[C@@H](C)[C@@H](O)[C@H](O)[C@@H](C)[C@H]1CC[C@H]2[C@@H]3COC(=O)[C@H]4C[C@H](O)[C@H](O)C[C@]4(C)[C@H]3CC[C@]12C [24-Epibrassinolide],,,,,,median lethal dose (LD50) (rats): higher than 2000 mg/kg; median lethal dose (LD50) (mice): higher than 1000 mg/kg
"CC[C@@H](C(C)C)[C@H](O)[C@@H](O)[C@@H](C)[C@H]1CC[C@H]2[C@@H]3CC(=O)[C@H]4C[C@H](F)CC[C@]4(C)[C@H]3CC[C@]12C [Compound 4, (22S,23S,24S)-3α-fluoro-22,23-dihydroxy-24-ethyl-5α-cholestan-6-one]",27.7 ± 4.0,22.5±2.7,−16.3 ± 4.2,,,"Wound Closure (% over control) ([1]; 10 μM, 12 h (Table 4)): 27.7 ± 4.0 %; fibroblast migration activity in words ([1]; 0.1-10 μM, 12 h): high activity, similar to HB; IC50 [3]: ~30 µM; cytotoxicity compared to the original brassinosteroids [4]: increased cytotoxicity"
"CC[C@@H](C(C)C)[C@@H](O)[C@H](O)[C@@H](C)[C@H]1CC[C@H]2[C@@H]3COC(=O)[C@H]4C[C@H](O)[C@H](O)C[C@]4(C)[C@H]3CC[C@]12C [Compound 7, (22R,23R,24S)-2α,3α-22,23-tetrahydroxy-24-ethyl-B-homo-7-oxa-5α-cholestan-6-one]",16.5 ± 0.5,13.1 ± 2.4,−14.8 ± 3.8,> 30,29.1 ± 3.4,
"CC(C)[C@H](C)[C@H](O)[C@@H](O)[C@@H](C)[C@H]1CC[C@H]2[C@@H]3COC(=O)[C@H]4C[C@@H](O)[C@H](O)C[C@]4(C)[C@H]3CC[C@]12C [Compound 8, (22S,23S,24R)-2α,3α-22,23-tetrahydroxy-24-methyl-B-homo-7-oxa-5α-cholestan-6-one]",13.2 ± 1.5,4.1 ± 1.7,−5.4 ± 7.9,> 30,31.9 ± 5.3,
"CC(C)C(C)C(O)C(O)C(C)C1CCC2C3COC(=O)C4CC(O)C(O)CC4(C)C3CCC12C [Compound 9, (22R,23R,24R)-2α,3α-22,23-tetrahydroxy-24-methyl-B-homo-7-oxa-5α-cholestan-6-one]",8.1 ± 1.6,11.7 ± 3.9,−6.7 ± 7.9,> 30,31.0 ± 2.6,
PDGF,,,,,,"Scratch wound closure, % of control [6]: 64.8 ± 1.7 %"
